The source of these data is patent US4426390A, “Novel β-lactam compounds, process for producing thereof, and use thereof as medicines” (Sanraku-Ocean Co., Ltd., priority 1980, dated 1984).

≈ marks a conversion by molar mass, not a printed value.

Series [1] in a line: Stability (half life) in phosphate buffers of various pH. The class given is physicochemical. Particulars: for half-life: 28° C. Here is the method:
By adding 2% sodium hydroxide or 10% hydrochloric acid, the pH of 0.05 M phosphate buffer is adjusted to 4, 5, 6, 7, 8 and 9, respectively, and distributed into test tubes in an amount of 3 ml. Concentrated solution of antibiotic OA-6129A (0.05 ml) is added to each test tube and allowed to stand in a thermostatic chamber of 28° C. The time course curve of the concentration decrease of antibiotic OA-6129A is drawn by spectrophotometric measurement at 300 nm, from which the half life of the antibiotic at the indicated pH is calculated. As a control, antibiotic PS-5, a carbapenem compound described in the above-cited reference is simultaneously tested.

Series [2] deals with ddY mice. As to conditions: mouse, in vivo, ip, 500 mg/kg.
Series [3] has as its system Enterobacter cloacac 45. Description: Disc assay of synergy, inhibition zones. The class given is cell-based. Particulars: disc OA-6129B2, PS-5 100 μg/ml, CER, PCG 1000 μg/ml. Here is the method:
(§1) (B) The presence or absence of synergy is visually checked by the size difference in inhibitory zones observed when the test drug is disc-assayedon an agar plate of a detector microbe and on an agar plate of the detector containing cephaloridine or benzylpenicillin, respectively.
(§2) One loopful of the stock culture of a test organism is inoculated in heat infusion broth (5 ml/tube), and grown at 37° C. for 18 hours. The culture broth is diluted to a final concentration of about 10^5 cells/ml in nutrient agar with or without benzyl penicillin or cephaloridine, and plated in a Petri dish with a diameter of 9 cm, as shown below.
(§3) Using the above-prepared agar plates, antibiotic PS-5 (100 μg/ml), antibiotic OA-6129B2 (5,6-trans OA-6129B) (100 μg/ml), benzylpenicillin (1000 μg/ml) and cephaloridine (1000 μg/ml) are subjected to disc assay.

The subject of series [4] is Serratia marccscens T55. The experiment in a line: Disc assay of synergy, inhibition zones. The class given is cell-based. Particulars: disc OA-6129B2, PS-5 100 μg/ml, CER, PCG 1000 μg/ml. Here is the method: as §1, §2, §3
The subject of series [5] is Citrobacter Freundii GN346. Description: Disc assay of synergy, inhibition zones. As to conditions: disc OA-6129B2, PS-5 100 μg/ml, CER, PCG 1000 μg/ml. The class given is cell-based. Here is the method: as §1, §2, §3
For series [6], the system named is Proteus vulgaris GN76. The experiment in a line: Disc assay of synergy, inhibition zones. The class given is cell-based. As to conditions: disc OA-6129B2, PS-5 100 μg/ml, CER, PCG 1000 μg/ml. Here is the method: as §1, §2, §3
Series [7] relates to Staphylococcus aureus 209P. Description: MIC by agar dilution method. As to conditions: 37° C., 18 hours. The class given is cell-based. Here is the method:
(§4) The MIC is measured by an agar dilution method based on the standard method of the Japanese Society of Chemotherapy (Japanese Society of Chemotherapy: The Revised Method of Determination of MIC Values, Chemotherapy 22, 1126-1128, […]). Specifically, the antibiotic is serially diluted with a 1/50 M phosphate buffer at a pH of 7.3 to prepare a twofold dilution series. One milliliter of each dilution and 9 ml of an agar medium (Heart Infusion Agar; a product of Difco Laboratories) are mixed and allowed to solidify in a Petri dish having a diameter of 9 cm. One loopful of the stock culture of the test microbe is inoculated in trypto-soy buillon (a product of Eiken Kagaku Co., Ltd.) and incubated at 37° C. for 18 hours. The resulting culture broth is diluted to a concentration of about 10^6 cells/ml with physiological saline and inoculated on the agar plate by means of a microplanter.
(In general: Agar dilution tests growth on a series of plates holding different concentrations.)

Series [8] has as its system Serratia marcesceus S18. The experiment in a line: MIC by agar dilution method. The class given is cell-based. Particulars: 37° C., 18 hours. Here is the method: as §4
In series [9] the test system is Ps. aeruginosa NCTC10490. The experiment in a line: MIC by agar dilution method. The class given is cell-based. As to conditions: Pseudomonas aeruginosa, 37° C., 18 hours. Here is the method:
as §4

Series [10] deals with E. coli RGN823. Description: MIC by agar dilution method. The class given is cell-based. As to conditions: Escherichia coli, 37° C., 18 hours. Here is the method:
as §4

The test system of series [11] is Enterobacter aerogenes E19. Description: MIC by agar dilution method. As to conditions: Klebsiella aerogenes, 37° C., 18 hours. The class given is cell-based. Here is the method: as §4
Series [12] deals with Comamonas terrigena B996. The experiment in a line: MIC by agar dilution method. The class given is cell-based. As to conditions: 37° C., 18 hours. Here is the method: as §4
In series [13] the test system is S. aureus Russell. The experiment in a line: MIC by agar dilution method. The class given is cell-based. Particulars: Staphylococcus aureus; S. aureus Russell; agar dilution, 37° C., 18 hours; read-out: MIC. Here is the method: as §4
The test system of series [14] is S. epidermidis. Description: MIC by agar dilution method. The class given is cell-based. As to conditions: Staphylococcus epidermidis, 37° C., 18 hours. Here is the method:
as §4

In series [15] the test system is Ent. cloacae 45. Description: MIC by agar dilution method. Particulars: Enterobacter cloacae, 37° C., 18 hours. The class given is cell-based. Here is the method: as §4
The subject of series [16] is Ent. sp. E8. Description: MIC by agar dilution method. As to conditions: Ent. sp. E8; agar dilution, 37° C., 18 hours; read-out: MIC. The class given is cell-based. Here is the method: as §4
For series [17], the system named is P. vulgaris GN76. The experiment in a line: MIC by agar dilution method. The class given is cell-based. As to conditions: Proteus vulgaris, 37° C., 18 hours. Here is the method:
as §4

Series [18] relates to Pseudomonas aenginosa IFO3445. Description: MIC by agar dilution method. The class given is cell-based. Particulars: 37° C., 18 hours. Here is the method:
as §4

Series [19] concerns Sarcina lutea S19. The experiment in a line: MIC by agar dilution method. As to conditions: Micrococcus luteus, 37° C., 18 hours. The class given is cell-based. Here is the method: as §4
Series [20] has as its system Escherichia coli K-12. Description: MIC by agar dilution method. The class given is cell-based. As to conditions: K12; Escherichia coli K-12; agar dilution, 37° C., 18 hours; read-out: MIC. Here is the method: as §4
Series [21] concerns Providencia sp. P8. The experiment in a line: MIC by agar dilution method. As to conditions: Providencia sp. P8; agar dilution, 37° C., 18 hours; read-out: MIC. The class given is cell-based. Here is the method: as §4
Series [22] relates to Klebsiella pneumoniae K13. Description: MIC by agar dilution method. The class given is cell-based. Particulars: 37° C., 18 hours. Here is the method:
as §4

Series [23] deals with Bacillus subtillis ATCC 6633. The experiment in a line: MIC by agar dilution method. The class given is cell-based. As to conditions: ATCC6633; Bacillus subtillis ATCC 6633; agar dilution, 37° C., 18 hours; read-out: MIC. Here is the method:
as §4

Series [24] concerns Ser. marcesceus T55. The experiment in a line: MIC by agar dilution method. The class given is cell-based. Particulars: 37° C., 18 hours. Here is the method:
as §4

Series [25] concerns S. aureus Smith. Description: MIC by agar dilution method. The class given is cell-based. Particulars: Staphylococcus aureus, 37° C., 18 hours. Here is the method:
as §4

Series [26] has as its system Proteus mirabilis P6. Description: MIC by agar dilution method. As to conditions: Proteus mirabilis P6; agar dilution, 37° C., 18 hours; read-out: MIC. The class given is cell-based. Here is the method: as §4
For series [27], the system named is Citrobacter Freundii GN346. The experiment in a line: MIC by agar dilution method. The class given is cell-based. As to conditions: 37° C., 18 hours. Here is the method:
as §4

In series [28] the test system is Alcaligenes Faecolis A1. The experiment in a line: MIC by agar dilution method. The class given is cell-based. As to conditions: Alcaligenes Faecolis A1; agar dilution, 37° C., 18 hours; read-out: MIC. Here is the method:
as §4

Series [29] relates to P. rettgeri P7. Description: MIC by agar dilution method. The class given is cell-based. Particulars: Providencia rettgeri; P. rettgeri P7; agar dilution, 37° C., 18 hours; read-out: MIC. Here is the method: as §4

For `CC(O)C1C(=O)N2C(C(=O)O)=C(SCCNC(=O)CCNC(=O)C(O)C(C)(C)CO)CC12` (stereo not shown) [OA-6129B], in series [1] (phosphate buffer, pH 4 to 9, 28° C.), the “stability relative to OA-6129A” value is reported as “substantially the same stability as antibiotic OA-6129A”. Besides, the acute toxicity entry in [2] is reported as “no acute toxicity is observed”.

By half-life is commonly meant the time needed for the level to fall by half in the phase considered. Read a low half-life as rapid decline. One may read the MIC as the least concentration at which growth counts as inhibited. In the case of `CCC1C(=O)N2C(C(=O)O)=C(SCCNC(C)=O)CC12` (stereo not shown) [PS-5, reference compound], the half-life in series [1] (pH 4, 0.05 M phosphate buffer) was 0.2 h; in [1] (pH 5, 0.05 M phosphate buffer) it was 3.43 h; in series [1] (pH 6, 0.05 M phosphate buffer), 13.2 h; in [1] (pH 7, 0.05 M phosphate buffer), 38.2 h; in series [1] (pH 8, 0.05 M phosphate buffer), 78 h; in [1] (pH 9, 0.05 M phosphate buffer), 36.2 h. The zone of inhibition at 100 µg/mL in [3] (Enterobacter, 45, plate: None, read-out: diameter of inhibition zones) turned out to be 20 mm; in [4] (Serratia, T55, plate: None, read-out: diameter of inhibition zones), 23.5 mm; in [5] (Citrobacter freundii, GN346, plate: None, read-out: diameter of inhibition zones), 22.5 mm; in [6] (Proteus vulgaris, GN76, plate: None, read-out: diameter of inhibition zones) it was 17.5 mm. Further, the “diameter of inhibition zones” value in series [3] (plate: + CER) was found to be 22.5 mm; in series [3] (plate: + PCG), 21.0 mm; in [4] (plate: + CER), 34.0 mm; in series [4] (plate: + PCG, reduced to 5 μg/ml (final concentration)), 24.0 mm; in [5] (plate: + CER) it was 24.0 mm; in series [5] (plate: + PCG), 23.5 mm. For the same compound, the figures for the “diameter of inhibition zones” value in series [6] (plate: + CER) and in [6] (plate: + PCG) were 23.5 mm and 25.0 mm, respectively. The MIC in series [7] was 0.024 µg/mL (≈ 0.0804 µM); in series [8] it was 3.13 µg/mL (≈ 10.5 µM); in [9], 12.5 µg/mL (≈ 41.9 µM); in series [10], 3.13 µg/mL (≈ 10.5 µM); in series [11], 3.13 µg/mL (≈ 10.5 µM); in series [12] it was 0.012 µg/mL (≈ 0.0402 µM). Moreover, the MIC is 0.2 µg/mL (≈ 0.67 µM) in series [13]; 0.2 µg/mL (≈ 0.67 µM) in series [14]; 3.13 µg/mL (≈ 10.5 µM) in series [15]; 3.13 µg/mL (≈ 10.5 µM) in [16]; 6.25 µg/mL (≈ 20.9 µM) in series [17]; 12.5 µg/mL (≈ 41.9 µM) in [18]. Also, the MIC in series [19] is 0.1 µg/mL (≈ 0.335 µM); in series [20], 1.56 µg/mL (≈ 5.23 µM); in [21], 3.13 µg/mL (≈ 10.5 µM); in series [22], 3.13 µg/mL (≈ 10.5 µM); in series [23], 0.1 µg/mL (≈ 0.335 µM); in series [24], 6.25 µg/mL (≈ 20.9 µM). In addition, the MIC in series [25] worked out at 0.2 µg/mL (≈ 0.67 µM); in [26], 6.25 µg/mL (≈ 20.9 µM); in series [27], 3.13 µg/mL (≈ 10.5 µM); in series [28], 0.78 µg/mL (≈ 2.61 µM); in series [29], 3.13 µg/mL (≈ 10.5 µM).
